According to PMC11951083, “Highly Specific Miniaturized Fluorescent Monoacylglycerol Lipase Probes Enable Translational Research” (Journal of the American Chemical Society, 2025):

Legend:
[1] = biological target: T1, ZAP70 kinase (h) (Homo sapiens, UniProt P43403); experiment: ZAP70 kinase (h); conditions: read-out: Inhibition ZAP70 kinase (h)
T1 sequence (P43403 1-619): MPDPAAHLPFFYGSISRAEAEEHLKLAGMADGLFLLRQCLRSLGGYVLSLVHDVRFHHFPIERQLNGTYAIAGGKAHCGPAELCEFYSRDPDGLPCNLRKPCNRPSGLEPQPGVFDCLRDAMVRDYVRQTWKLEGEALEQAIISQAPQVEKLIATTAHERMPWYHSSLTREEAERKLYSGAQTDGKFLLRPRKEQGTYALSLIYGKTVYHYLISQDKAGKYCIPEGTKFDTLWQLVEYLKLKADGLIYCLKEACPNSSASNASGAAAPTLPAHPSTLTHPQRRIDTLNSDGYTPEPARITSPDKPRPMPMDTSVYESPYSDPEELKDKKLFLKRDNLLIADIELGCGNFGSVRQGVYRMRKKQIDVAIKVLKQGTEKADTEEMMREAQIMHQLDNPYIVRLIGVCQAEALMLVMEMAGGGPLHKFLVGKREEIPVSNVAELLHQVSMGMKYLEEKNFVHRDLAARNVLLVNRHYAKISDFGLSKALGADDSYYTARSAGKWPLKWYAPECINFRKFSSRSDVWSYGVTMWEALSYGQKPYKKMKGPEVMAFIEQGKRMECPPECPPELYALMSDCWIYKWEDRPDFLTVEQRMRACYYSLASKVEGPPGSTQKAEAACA

[2] = test system: 50 clinically relevant and safety-related off-targets; experiment: CEREP panel of 50 off-targets (overall); conditions: for selectivity profile in off-target panel: 10 μM, panel of 50 unrelated off-target receptors and enzymes; for S(50): fraction of targets with more than 50% inhibition at 10 µM; for S(90): fraction of targets with more than 90% inhibition at 10 µM
[3] = test system: N muscle-type (h); experiment: N muscle-type (h) (antagonist radioligand); conditions: 10 µM
[4] = biological target: D2S (h) (Homo sapiens, UniProt P14416); experiment: D2S (h) (agonist radioligand); conditions: read-out: Inhibition D2S (h) (agonist radioligand)
D2S (h), sequence (P14416 1-414 isoform P14416-2): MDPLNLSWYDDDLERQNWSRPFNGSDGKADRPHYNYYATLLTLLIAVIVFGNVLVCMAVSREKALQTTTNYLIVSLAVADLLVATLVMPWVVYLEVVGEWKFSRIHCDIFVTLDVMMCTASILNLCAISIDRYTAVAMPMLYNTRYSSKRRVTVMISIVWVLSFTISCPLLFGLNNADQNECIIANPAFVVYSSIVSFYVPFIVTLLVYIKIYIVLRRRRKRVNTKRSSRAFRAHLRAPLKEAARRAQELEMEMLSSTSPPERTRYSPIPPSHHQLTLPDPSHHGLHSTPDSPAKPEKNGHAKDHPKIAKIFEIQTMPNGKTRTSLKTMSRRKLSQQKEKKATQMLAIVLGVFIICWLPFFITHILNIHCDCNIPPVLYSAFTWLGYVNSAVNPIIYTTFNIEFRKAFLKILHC

[5] = biological target: T2, A1 (h) (Homo sapiens, UniProt P30542); experiment: A1 (h) (agonist radioligand); conditions: read-out: Inhibition A1 (h) (agonist radioligand)
T2 sequence (P30542 1-326): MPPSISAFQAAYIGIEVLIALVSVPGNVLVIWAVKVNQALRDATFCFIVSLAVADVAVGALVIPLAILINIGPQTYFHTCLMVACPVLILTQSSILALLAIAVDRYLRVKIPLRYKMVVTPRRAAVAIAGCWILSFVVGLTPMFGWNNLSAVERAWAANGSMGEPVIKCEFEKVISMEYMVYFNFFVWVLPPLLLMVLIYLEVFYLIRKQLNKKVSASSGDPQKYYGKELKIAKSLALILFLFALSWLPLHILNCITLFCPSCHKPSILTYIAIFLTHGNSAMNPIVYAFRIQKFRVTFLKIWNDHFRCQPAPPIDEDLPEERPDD

[6] = test system: HIV-1 protease; experiment: HIV-1 protease; conditions: 10 µM
[7] = biological target: CDK2 (h) (cycA) (Homo sapiens, UniProt P24941); experiment: CDK2 (h) (cycA); conditions: read-out: Inhibition CDK2 (h) (cycA)
[8] = biological target: T3, CCK1 (CCKA) (h) (Homo sapiens, UniProt P32238); experiment: CCK1 (CCKA) (h) (agonist radioligand); conditions: read-out: Inhibition CCK1 (CCKA) (h) (agonist radioligand)
T3 sequence (P32238 1-428): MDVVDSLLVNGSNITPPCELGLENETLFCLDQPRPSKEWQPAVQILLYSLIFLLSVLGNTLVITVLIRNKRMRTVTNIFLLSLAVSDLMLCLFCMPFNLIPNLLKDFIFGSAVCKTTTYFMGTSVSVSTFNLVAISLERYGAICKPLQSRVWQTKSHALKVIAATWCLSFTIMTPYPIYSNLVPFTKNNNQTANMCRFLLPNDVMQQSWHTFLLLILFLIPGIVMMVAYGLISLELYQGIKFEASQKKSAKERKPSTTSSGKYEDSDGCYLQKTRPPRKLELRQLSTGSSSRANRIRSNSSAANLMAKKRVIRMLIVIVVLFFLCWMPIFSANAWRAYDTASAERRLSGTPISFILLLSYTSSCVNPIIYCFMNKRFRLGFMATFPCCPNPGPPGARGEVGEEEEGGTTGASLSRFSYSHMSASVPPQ

[9] = biological target: H1 (h) (Homo sapiens, UniProt P35367); experiment: H1 (h) (antagonist radioligand); conditions: read-out: Inhibition H1 (h) (antagonist radioligand)
H1 (h), sequence (P35367 whole entry): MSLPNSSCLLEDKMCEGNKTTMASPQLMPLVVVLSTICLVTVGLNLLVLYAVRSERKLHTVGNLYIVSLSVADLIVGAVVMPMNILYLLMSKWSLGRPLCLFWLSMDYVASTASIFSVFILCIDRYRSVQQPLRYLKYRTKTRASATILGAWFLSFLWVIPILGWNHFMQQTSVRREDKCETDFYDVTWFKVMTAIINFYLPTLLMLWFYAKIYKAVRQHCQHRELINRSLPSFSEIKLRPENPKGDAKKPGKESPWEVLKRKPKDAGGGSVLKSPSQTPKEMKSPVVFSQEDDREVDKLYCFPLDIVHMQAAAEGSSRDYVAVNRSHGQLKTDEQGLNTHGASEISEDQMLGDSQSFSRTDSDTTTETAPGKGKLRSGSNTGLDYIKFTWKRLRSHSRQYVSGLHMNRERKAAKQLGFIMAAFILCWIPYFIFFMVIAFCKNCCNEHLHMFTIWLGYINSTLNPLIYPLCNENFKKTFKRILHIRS

[10] = biological target: acetylcholinesterase (h) (Homo sapiens, UniProt P22303); experiment: acetylcholinesterase (h); conditions: read-out: Inhibition acetylcholinesterase (h)
acetylcholinesterase (h), sequence (P22303 32-614): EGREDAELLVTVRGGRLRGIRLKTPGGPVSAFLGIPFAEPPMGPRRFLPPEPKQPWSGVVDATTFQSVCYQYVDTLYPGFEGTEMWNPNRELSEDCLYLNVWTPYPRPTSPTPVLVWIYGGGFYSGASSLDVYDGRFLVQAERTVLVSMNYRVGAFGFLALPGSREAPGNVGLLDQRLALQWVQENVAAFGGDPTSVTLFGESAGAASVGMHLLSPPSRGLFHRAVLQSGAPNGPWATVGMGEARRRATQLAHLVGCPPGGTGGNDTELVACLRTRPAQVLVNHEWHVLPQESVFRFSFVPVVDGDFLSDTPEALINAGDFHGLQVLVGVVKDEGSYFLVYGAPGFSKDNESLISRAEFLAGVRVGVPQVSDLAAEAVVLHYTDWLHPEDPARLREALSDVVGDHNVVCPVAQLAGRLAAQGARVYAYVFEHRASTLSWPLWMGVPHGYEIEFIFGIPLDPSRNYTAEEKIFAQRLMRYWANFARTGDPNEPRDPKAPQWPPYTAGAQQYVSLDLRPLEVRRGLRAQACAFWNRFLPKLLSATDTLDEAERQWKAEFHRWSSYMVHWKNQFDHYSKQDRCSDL

[11] = biological target: T4, PPARgamma (h) (Homo sapiens, UniProt P37231); experiment: PPARgamma (h) (agonist radioligand); conditions: read-out: Inhibition PPARgamma (h) (agonist radioligand)
T4 sequence (P37231 1-505): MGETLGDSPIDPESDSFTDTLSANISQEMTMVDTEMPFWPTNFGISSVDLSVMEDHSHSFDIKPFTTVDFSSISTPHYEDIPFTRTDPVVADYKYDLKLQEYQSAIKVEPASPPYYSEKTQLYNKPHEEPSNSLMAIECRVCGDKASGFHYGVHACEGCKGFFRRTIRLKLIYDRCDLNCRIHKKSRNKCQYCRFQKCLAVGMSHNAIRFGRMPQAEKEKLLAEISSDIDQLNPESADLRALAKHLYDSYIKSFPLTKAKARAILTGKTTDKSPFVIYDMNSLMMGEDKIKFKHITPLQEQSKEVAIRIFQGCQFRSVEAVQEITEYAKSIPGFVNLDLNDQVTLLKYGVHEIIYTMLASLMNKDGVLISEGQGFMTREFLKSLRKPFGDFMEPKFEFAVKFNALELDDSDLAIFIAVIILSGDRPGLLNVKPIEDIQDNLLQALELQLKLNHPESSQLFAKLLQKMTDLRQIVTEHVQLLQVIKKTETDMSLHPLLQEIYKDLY

SMILES	inhibition at 10 µM [1]	selectivity profile in off-target panel [2]	S(50) [2]	S(90) [2]	Inhibition N muscle-type (h) (antagonist radioligand) [3]	inhibition at 10 µM [4]	inhibition at 10 µM [5]	Inhibition HIV-1 protease [6]	inhibition at 10 µM [7]	inhibition at 10 µM [8]	inhibition at 10 µM [9]	inhibition at 10 µM [10]	inhibition at 10 µM [11]
O=C(OC(C(F)(F)F)C(F)(F)F)N1CC2(CC(CC3=C4C=CC(c5ccc[nH]5)=[N+]4[B-](F)(F)n4cccc43)C2)C1 [Compound 2a]	2.3%	very clean selectivity profile	0.0%	0.0%	-9,40%	-2.6%	-1%	8,30%	-5.8%	11.9%	4.4%	2.5%	20%
O=C1CO[C@H]2CCN(C(=O)N3CC4(CC(CC5=C6C=CC(c7ccc[nH]7)=[N+]6[B-](F)(F)n6cccc65)C4)C3)C[C@H]2N1 [Compound 4a]	5.4%	very clean selectivity profile	0.0%	0.0%	-1,70%	3.3%	8.7%	23,80%	-8.3%	-22.1%	1.3%	1.8%	20%
O=C(O[C@H](CO)C(F)(F)F)N1CC2(CC(CC3=C4C=CC=[N+]4[B-](F)(F)n4cccc43)C2)C1 [Compound 1]	4.3%	very clean selectivity profile	–	0.0%	-11,30%	5.9%	-3.9%	10,30%	7.8%	-3.8%	30.4%	-8.2%	74.3%
O=C(OC(C(F)(F)F)C(F)(F)F)N1CC2(CC(CC3=C4C=CC=[N+]4[B-](F)(F)n4cccc43)C2)C1 [Compound 2]	-2%	very clean selectivity profile	4.0%	0.0%	-0,30%	-4.1%	4.4%	-1,90%	6.3%	-8.8%	5.5%	-2.9%	56.3%
O=C(N1CC2(CC(CC3=C4C=CC=[N+]4[B-](F)(F)n4cccc43)C2)C1)N1CC2(CC(n3cnc(C4CC4)n3)C2)C1 [Compound 5]	6.9%	very clean selectivity profile	–	0.0%	17,00%	12.6%	1.3%	5,20%	6.5%	-24.7%	51.5%	-14.4%	5.6%
